This note sets out measurements from ChEMBL document CHEMBL1909046, “DrugMatrix in vitro pharmacology data”.

Sequence of Vasopressin V1a receptor (P37288 whole entry): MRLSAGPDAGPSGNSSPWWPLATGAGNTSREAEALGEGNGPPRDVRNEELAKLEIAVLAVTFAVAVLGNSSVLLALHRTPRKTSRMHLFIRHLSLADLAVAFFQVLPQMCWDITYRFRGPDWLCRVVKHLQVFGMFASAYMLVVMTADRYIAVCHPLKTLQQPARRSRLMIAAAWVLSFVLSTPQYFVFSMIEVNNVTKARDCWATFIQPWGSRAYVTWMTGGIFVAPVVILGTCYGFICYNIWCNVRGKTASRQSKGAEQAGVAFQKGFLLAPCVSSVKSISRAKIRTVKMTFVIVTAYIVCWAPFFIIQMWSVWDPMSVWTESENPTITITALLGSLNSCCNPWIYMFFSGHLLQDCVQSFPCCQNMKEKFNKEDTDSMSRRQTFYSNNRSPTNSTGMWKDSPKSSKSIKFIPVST

For one assay, the target named is Melanocortin receptor 3 (Homo sapiens, UniProt P41968). Format: cell membranes, Membrane. Particulars: hek293. Further: in other assays of this panel Not Active means under 50% inhibition at 10 µM.
Sequence of Melanocortin receptor 3 (P41968 whole entry): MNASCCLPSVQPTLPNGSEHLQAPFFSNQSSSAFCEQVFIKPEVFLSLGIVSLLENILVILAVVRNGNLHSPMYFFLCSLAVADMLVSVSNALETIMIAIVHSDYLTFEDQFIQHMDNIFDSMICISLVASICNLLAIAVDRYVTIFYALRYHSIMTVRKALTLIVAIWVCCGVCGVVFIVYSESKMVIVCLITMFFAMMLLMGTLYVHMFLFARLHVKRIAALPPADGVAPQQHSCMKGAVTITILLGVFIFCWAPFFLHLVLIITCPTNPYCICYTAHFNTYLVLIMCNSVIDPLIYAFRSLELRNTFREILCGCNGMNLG
What is called IC50 is the concentration needed to halve the response being measured. On to `CC(C)(C)c1ccc(S(=O)(=O)/C=C/C#N)cc1` [BAY-11-7085], for which the 50% inhibitory concentration (IC50) result is given as “Not Active”.
Regarding `CCc1oc2ccccc2c1C(=O)c1cc(Br)c(O)c(Br)c1` [BENZBROMARONE], the concentration for half-maximal inhibition (IC50) entry is recorded as “Not Active”.
On to `CC(C)C[C@H]1C(=O)N2CCC[C@H]2[C@]2(O)O[C@](NC(=O)[C@@H]3C=C4c5cccc6[nH]c(Br)c(c56)C[C@H]4N(C)C3)(C(C)C)C(=O)N12` [BROMOCRIPTINE], for which the 50% inhibitory concentration (IC50) entry is “Not Active”.
Still for that read-out and setting: with `O=C(/C=C/c1ccc(O)c(O)c1)OCCc1ccccc1` [CAFFEIC ACID PHENETHYL ESTER] the entry was “Not Active”.

Another assay addresses Vasopressin V1a receptor (Homo sapiens, UniProt P37288). Format: cell membranes, Membrane. As to conditions: hek293.
`CC(C)(C)c1ccc(S(=O)(=O)/C=C/C#N)cc1` [BAY-11-7085]: the half-maximal inhibitory concentration (IC50) entry is listed as “Not Active”.
Still for that read-out and setting: with `CCc1oc2ccccc2c1C(=O)c1cc(Br)c(O)c(Br)c1` [BENZBROMARONE] the entry was “Not Active”; with `CC(C)C[C@H]1C(=O)N2CCC[C@H]2[C@]2(O)O[C@](NC(=O)[C@@H]3C=C4c5cccc6[nH]c(Br)c(c56)C[C@H]4N(C)C3)(C(C)C)C(=O)N12` [BROMOCRIPTINE], “Not Active”.
Turning to `O=C(/C=C/c1ccc(O)c(O)c1)OCCc1ccccc1` [CAFFEIC ACID PHENETHYL ESTER], the IC50 result is on record as “Not Active”.

For a further assay, the target named is T1, Caspase-1 (Homo sapiens, UniProt P29466).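 Further: Caspase-1 enzyme inhibition assay with a peptide substrate; in other assays of this panel Not Active means under 50% inhibition at 10 µM.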
T1 sequence (P29466 whole entry): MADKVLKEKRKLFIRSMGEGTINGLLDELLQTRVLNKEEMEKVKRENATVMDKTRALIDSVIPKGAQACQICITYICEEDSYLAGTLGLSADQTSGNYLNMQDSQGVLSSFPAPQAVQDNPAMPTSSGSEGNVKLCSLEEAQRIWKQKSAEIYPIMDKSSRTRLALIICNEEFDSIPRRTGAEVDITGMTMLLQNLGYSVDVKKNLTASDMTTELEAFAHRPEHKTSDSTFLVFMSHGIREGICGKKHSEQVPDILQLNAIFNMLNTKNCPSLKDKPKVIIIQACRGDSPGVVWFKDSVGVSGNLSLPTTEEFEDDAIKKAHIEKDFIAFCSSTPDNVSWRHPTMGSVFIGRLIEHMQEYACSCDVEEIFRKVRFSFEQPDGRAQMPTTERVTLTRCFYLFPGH
Details: species or system Escherichia coli.
Conditions: not given
`CC(C)(C)c1ccc(S(=O)(=O)/C=C/C#N)cc1` [BAY-11-7085]: the half-inhibitory concentration (IC50) entry was “Not Active”.
For `CCc1oc2ccccc2c1C(=O)c1cc(Br)c(O)c(Br)c1` [BENZBROMARONE], the IC50 result is “Not Active”.
As to `CC(C)C[C@H]1C(=O)N2CCC[C@H]2[C@]2(O)O[C@](NC(=O)[C@@H]3C=C4c5cccc6[nH]c(Br)c(c56)C[C@H]4N(C)C3)(C(C)C)C(=O)N12` [BROMOCRIPTINE], the IC50 entry is “Not Active”.
As for `O=C(/C=C/c1ccc(O)c(O)c1)OCCc1ccccc1` [CAFFEIC ACID PHENETHYL ESTER], the IC50 entry is reported as “Not Active”.

Tested on in another assay: not listed separately
The assay can be described thus: DRUGMATRIX: beta-Lactamase enzyme inhibition (substrate: Nitrocefin). As to conditions: Not Active = under 50% inhibition at 10 µM. Details: species or system Bacillus cereus.
With `CC(C)(C)c1ccc(S(=O)(=O)/C=C/C#N)cc1` [BAY-11-7085], the IC50 entry is reported as “Not Active” and the Ki entry was “Not Active”.
As for `CCc1oc2ccccc2c1C(=O)c1cc(Br)c(O)c(Br)c1` [BENZBROMARONE], the IC50 entry is reported as “Not Active” and the Ki entry is “Not Active”.
Regarding `CC(C)C[C@H]1C(=O)N2CCC[C@H]2[C@]2(O)O[C@](NC(=O)[C@@H]3C=C4c5cccc6[nH]c(Br)c(c56)C[C@H]4N(C)C3)(C(C)C)C(=O)N12` [BROMOCRIPTINE], the IC50 result is recorded as “Not Active” and the Ki result is “Not Active”.
As for `O=C(/C=C/c1ccc(O)c(O)c1)OCCc1ccccc1` [CAFFEIC ACID PHENETHYL ESTER], the IC50 result is given as “Not Active” and the Ki result is listed as “Not Active”.

For another assay, the target named is T2, Adenosine receptor A1 (Homo sapiens, UniProt P30542).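 Further: radioligand binding assay at the adenosine A1 receptor, with DPCPX serving as the labelled ligand; in other assays of this panel Not Active means under 50% inhibition at 10 µM.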
T2 sequence (P30542 whole entry): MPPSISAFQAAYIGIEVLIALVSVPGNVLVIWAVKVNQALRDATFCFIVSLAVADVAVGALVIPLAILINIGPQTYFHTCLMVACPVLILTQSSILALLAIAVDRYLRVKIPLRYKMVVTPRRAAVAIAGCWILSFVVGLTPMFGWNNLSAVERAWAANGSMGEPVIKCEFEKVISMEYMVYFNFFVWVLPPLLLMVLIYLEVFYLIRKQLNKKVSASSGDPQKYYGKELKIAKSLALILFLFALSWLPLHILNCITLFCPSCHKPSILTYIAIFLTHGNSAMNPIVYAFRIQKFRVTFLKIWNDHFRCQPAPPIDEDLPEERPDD
Format: cell membranes, CHO, Membrane. Particulars: cho.
As to `CC(C)(C)c1ccc(S(=O)(=O)/C=C/C#N)cc1` [BAY-11-7085], the half-maximal inhibitory concentration (IC50) result is on record as “Not Active”.
As for `CCc1oc2ccccc2c1C(=O)c1cc(Br)c(O)c(Br)c1` [BENZBROMARONE], the IC50 entry is on record as “Not Active”.
Take `CC(C)C[C@H]1C(=O)N2CCC[C@H]2[C@]2(O)O[C@](NC(=O)[C@@H]3C=C4c5cccc6[nH]c(Br)c(c56)C[C@H]4N(C)C3)(C(C)C)C(=O)N12` [BROMOCRIPTINE]: the half-maximal inhibitory concentration (IC50) entry is reported as “Not Active”.
`O=C(/C=C/c1ccc(O)c(O)c1)OCCc1ccccc1` [CAFFEIC ACID PHENETHYL ESTER]: the IC50 result was “Not Active”.

Another assay concerns the target T3, Glucocorticoid receptor (Homo sapiens, UniProt P04150). Further: in other assays of this panel Not Active means under 50% inhibition at 10 µM.
T3 sequence (P04150 whole entry): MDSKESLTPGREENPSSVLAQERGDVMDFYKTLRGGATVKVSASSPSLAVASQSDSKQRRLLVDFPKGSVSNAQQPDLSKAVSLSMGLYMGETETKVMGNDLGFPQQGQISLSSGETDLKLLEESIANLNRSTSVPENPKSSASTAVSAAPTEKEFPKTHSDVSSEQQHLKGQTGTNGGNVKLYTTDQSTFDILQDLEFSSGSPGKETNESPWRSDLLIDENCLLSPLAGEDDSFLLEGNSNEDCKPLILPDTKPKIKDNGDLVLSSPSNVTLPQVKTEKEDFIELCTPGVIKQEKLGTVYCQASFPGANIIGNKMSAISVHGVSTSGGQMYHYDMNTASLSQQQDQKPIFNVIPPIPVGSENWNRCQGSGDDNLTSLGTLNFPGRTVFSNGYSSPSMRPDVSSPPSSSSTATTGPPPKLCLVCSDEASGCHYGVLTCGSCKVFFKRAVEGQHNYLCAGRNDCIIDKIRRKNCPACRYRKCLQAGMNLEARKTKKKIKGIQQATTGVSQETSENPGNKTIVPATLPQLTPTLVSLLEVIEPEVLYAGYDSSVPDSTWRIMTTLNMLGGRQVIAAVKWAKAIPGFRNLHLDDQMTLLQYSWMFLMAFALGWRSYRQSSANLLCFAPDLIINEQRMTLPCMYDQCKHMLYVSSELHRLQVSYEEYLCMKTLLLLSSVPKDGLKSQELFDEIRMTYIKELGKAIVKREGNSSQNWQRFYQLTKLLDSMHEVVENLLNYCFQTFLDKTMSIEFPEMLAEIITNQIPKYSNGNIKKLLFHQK
Particulars: hela s3.
As to `CC(C)(C)c1ccc(S(=O)(=O)/C=C/C#N)cc1` [BAY-11-7085], the 50% inhibitory concentration (IC50) entry was “Not Active”.
As to `CCc1oc2ccccc2c1C(=O)c1cc(Br)c(O)c(Br)c1` [BENZBROMARONE], the concentration for half-maximal inhibition (IC50) entry is “Not Active”.
`CC(C)C[C@H]1C(=O)N2CCC[C@H]2[C@]2(O)O[C@](NC(=O)[C@@H]3C=C4c5cccc6[nH]c(Br)c(c56)C[C@H]4N(C)C3)(C(C)C)C(=O)N12` [BROMOCRIPTINE]: the concentration for half-maximal inhibition (IC50) result is recorded as “Not Active”.
On the same count and under the same terms, next, `O=C(/C=C/c1ccc(O)c(O)c1)OCCc1ccccc1` [CAFFEIC ACID PHENETHYL ESTER]: “Not Active”.

The next assay has as its target T4, Cholecystokinin receptor type A (Homo sapiens, UniProt P32238). Further: in other assays of this panel Not Active means under 50% inhibition at 10 µM.
T4 sequence (P32238 whole entry): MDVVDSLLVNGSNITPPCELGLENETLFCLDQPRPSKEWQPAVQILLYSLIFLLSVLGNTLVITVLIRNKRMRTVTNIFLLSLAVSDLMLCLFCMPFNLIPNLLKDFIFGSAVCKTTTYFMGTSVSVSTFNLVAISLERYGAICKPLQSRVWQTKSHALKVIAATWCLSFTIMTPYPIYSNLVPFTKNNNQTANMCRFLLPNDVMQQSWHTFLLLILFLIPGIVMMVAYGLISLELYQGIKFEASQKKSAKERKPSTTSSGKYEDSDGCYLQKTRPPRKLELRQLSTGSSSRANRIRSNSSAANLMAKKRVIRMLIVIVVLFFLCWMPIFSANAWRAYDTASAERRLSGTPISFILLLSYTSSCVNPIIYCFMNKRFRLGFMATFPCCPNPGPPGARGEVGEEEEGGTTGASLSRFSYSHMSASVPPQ
In kind it is cell membranes, Membrane. As to conditions: 1321-n1.
As for `CC(C)(C)c1ccc(S(=O)(=O)/C=C/C#N)cc1` [BAY-11-7085], the IC50 result is “Not Active”.
Same read-out and setting: with `CCc1oc2ccccc2c1C(=O)c1cc(Br)c(O)c(Br)c1` [BENZBROMARONE] the entry was “Not Active”; with `CC(C)C[C@H]1C(=O)N2CCC[C@H]2[C@]2(O)O[C@](NC(=O)[C@@H]3C=C4c5cccc6[nH]c(Br)c(c56)C[C@H]4N(C)C3)(C(C)C)C(=O)N12` [BROMOCRIPTINE], “Not Active”.
Turning to `O=C(/C=C/c1ccc(O)c(O)c1)OCCc1ccccc1` [CAFFEIC ACID PHENETHYL ESTER], the concentration for half-maximal inhibition (IC50) result is “Not Active”.

Tested on in the next assay: not listed separately
Kind of assay: DRUGMATRIX: Phosphodiesterase PDE4 enzyme inhibition (substrate: [3H]cAMP + cAMP). As to conditions: u-937; Not Active = under 50% inhibition at 10 µM.
With `CC(C)(C)c1ccc(S(=O)(=O)/C=C/C#N)cc1` [BAY-11-7085], the 50% inhibitory concentration (IC50) entry is listed as “Not Active” and the Ki result is on record as “Not Active”.
On to `CC(C)C[C@H]1C(=O)N2CCC[C@H]2[C@]2(O)O[C@](NC(=O)[C@@H]3C=C4c5cccc6[nH]c(Br)c(c56)C[C@H]4N(C)C3)(C(C)C)C(=O)N12` [BROMOCRIPTINE], for which the IC50 result is reported as “Not Active” and the Ki result was “Not Active”.
In the case of `O=C(/C=C/c1ccc(O)c(O)c1)OCCc1ccccc1` [CAFFEIC ACID PHENETHYL ESTER], the IC50 result was “Not Active” and the Ki result is listed as “Not Active”.

Still in this assay, the particulars now being: u-937; Not Active = under 50% inhibition at 10 µM; read-out: IC50.
Consider `CCc1oc2ccccc2c1C(=O)c1cc(Br)c(O)c(Br)c1` [BENZBROMARONE], for which the IC50 was determined as 1.06 µM.
